# Results from ChEMBL document CHEMBL3132787, “Polyhydroxylated pyrrolidine and 2-oxapyrrolizidine as glycosidase inhibitors” (Medchemcomm, 2013).
# Tests used:
# [1] = test system: Geobacillus stearothermophilus; test: Inhibition of Bacillus stearothermophilus alpha-glucosidase using p-nitrophenyl glycoside as substrate assessed as residual activity at 1 mM after 25 mins by spectrophotometer analysis
# Canavalia ensiformis = test: Inhibition of jack bean alpha-mannosidase using p-nitrophenyl glycoside as substrate assessed as residual activity at 1 mM after 25 mins by spectrophotometer analysis
# [2] = target: Alpha-galactosidase (Coffea arabica) (UniProt Q42656); test: Inhibition of green coffee bean alpha-galactosidase using p-nitrophenyl glycoside as substrate assessed as residual activity at 1 mM after 25 mins by spectrophotometer analysis
# Alpha-galactosidase (Coffea arabica), sequence (Q42656 16-378 limits assumed): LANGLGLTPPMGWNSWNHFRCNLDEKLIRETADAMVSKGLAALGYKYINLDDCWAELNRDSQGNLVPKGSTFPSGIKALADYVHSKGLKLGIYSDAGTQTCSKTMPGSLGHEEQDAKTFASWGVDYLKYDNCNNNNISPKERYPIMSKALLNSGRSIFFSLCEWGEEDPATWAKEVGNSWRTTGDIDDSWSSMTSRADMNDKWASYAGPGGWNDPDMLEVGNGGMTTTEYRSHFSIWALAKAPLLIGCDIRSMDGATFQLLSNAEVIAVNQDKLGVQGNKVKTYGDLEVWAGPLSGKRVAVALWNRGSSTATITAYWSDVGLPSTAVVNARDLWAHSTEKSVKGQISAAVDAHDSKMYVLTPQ
# [3] = target: Beta-galactosidase (Escherichia coli) (UniProt Q8VNN2); test: Inhibition of Escherichia coli beta-galactosidase using p-nitrophenyl glycoside as substrate assessed as residual activity at 1 mM after 25 mins by spectrophotometer analysis
# Beta-galactosidase (Escherichia coli), sequence (Q8VNN2 whole entry, looked up): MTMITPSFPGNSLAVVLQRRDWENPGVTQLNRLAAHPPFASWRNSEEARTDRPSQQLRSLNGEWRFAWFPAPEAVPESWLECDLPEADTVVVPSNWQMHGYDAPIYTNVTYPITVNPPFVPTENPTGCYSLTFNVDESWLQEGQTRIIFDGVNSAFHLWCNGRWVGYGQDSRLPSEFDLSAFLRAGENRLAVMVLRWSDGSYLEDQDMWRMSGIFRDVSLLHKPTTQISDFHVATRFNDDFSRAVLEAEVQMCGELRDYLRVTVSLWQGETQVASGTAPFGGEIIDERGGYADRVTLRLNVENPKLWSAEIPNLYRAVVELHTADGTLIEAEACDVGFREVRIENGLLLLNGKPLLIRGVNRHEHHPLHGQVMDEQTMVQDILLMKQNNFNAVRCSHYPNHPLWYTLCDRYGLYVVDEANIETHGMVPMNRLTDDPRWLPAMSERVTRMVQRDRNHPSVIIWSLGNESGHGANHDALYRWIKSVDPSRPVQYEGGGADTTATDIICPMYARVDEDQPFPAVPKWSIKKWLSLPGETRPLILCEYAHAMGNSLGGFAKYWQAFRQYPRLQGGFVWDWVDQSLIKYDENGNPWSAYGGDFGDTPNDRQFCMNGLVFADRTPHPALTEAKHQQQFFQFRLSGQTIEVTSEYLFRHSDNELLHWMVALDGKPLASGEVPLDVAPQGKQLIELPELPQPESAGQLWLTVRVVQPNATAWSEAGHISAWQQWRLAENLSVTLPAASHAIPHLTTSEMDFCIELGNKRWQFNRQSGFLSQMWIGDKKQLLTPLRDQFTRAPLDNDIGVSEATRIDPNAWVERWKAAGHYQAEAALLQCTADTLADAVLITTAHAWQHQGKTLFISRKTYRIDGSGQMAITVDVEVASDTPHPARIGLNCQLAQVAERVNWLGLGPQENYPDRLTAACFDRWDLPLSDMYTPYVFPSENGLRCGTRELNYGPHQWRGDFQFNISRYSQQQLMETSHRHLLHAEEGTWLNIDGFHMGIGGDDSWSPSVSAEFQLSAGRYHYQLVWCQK
# Prunus dulcis = test: Inhibition of sweet almond beta-glucosidase using p-nitrophenyl glycoside as substrate assessed as residual activity at 1 mM after 25 mins by spectrophotometer analysis
# Helix pomatia = test: Inhibition of Helix pomatia beta-mannosidase using p-nitrophenyl glycoside as substrate assessed as residual activity at 1 mM after 25 mins by spectrophotometer analysis
# [4] = Competitive inhibition of sweet almond beta-glucosidase using p-nitrophenyl glycoside as substrate by Lineweaver-Burk plot analysis; design: species or system Prunus dulcis
# Alpha-galactosidase = Alpha-galactosidase (Coffea arabica, UniProt Q42656); test: Competitive inhibition of green coffee bean alpha-galactosidase using p-nitrophenyl glycoside as substrate by Lineweaver-Burk plot analysis
# Alpha-galactosidase, sequence (Q42656 whole entry): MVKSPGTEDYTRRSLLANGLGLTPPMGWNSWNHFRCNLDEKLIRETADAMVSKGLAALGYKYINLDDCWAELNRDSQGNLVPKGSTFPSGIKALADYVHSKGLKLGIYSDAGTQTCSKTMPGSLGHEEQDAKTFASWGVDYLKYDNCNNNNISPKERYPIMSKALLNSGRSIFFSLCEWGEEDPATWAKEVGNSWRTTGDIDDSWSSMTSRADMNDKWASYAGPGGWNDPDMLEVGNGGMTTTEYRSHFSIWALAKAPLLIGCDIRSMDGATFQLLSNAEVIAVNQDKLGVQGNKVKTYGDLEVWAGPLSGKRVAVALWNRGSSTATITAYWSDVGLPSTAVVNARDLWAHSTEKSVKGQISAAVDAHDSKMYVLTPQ
Compound,Activity [1],Activity (Canavalia ensiformis),Activity [2],Activity [3],Activity (Prunus dulcis),Activity (Helix pomatia),Ki [4],Ki (Alpha-galactosidase)
O=P(O)(O)OC[C@@H]1C[C@H](O)[C@@H](CO)N1,97%,76.8%,91.9%,114%,96.1%,100%,,
OC[C@@H]1C[C@H](O)[C@@H](CO)N1,12.8%,102%,50.4%,53.5%,1.7%,97%,29.2 µM,
O=C1OC[C@@H]2C[C@H](O)[C@@H](CO)N12,39.1%,72.2%,5.4%,109%,75.7%,98.7%,,40.8 µM
O=C(NCCP(=O)(O)O)[C@@H]1C[C@H](O)[C@@H](CO)N1,97.1%,83.9%,107%,55.8%,83.6%,93.7%,,
O=C(O)[C@@H]1C[C@H](O)[C@@H](CO)N1,110%,82%,95.2%,90.7%,115%,99.3%,,
